# Reference: patent US20080219936A1, “Skin depigmenting compositions comprising adapalene, at least one depigmenting agent and at least one anti-inflammatory agent” (GALDERMA RESEARCH AND DEVELOPMENT, priority 2005, published 2008)
# Legend:
# [1] = test system: natural pigmentation of the tail of an SKH:HR2 mouse; assay: Depigmenting activity on natural pigmentation, tail of non-irradiated SKH:HR2 mouse, 8 weeks; type: in vivo; conditions: topical in acetone 5 days a week for 8 weeks, 3% hydroquinone, 0.1% adapalene, alone or in combination
# Procedure: The evaluation of the depigmenting and/or anti-pigmenting activity of 3% hydroquinone and of 0.1% adapalene, alone or in combination for 8 weeks, is carried out on the tail of an SKH:HR2 mouse irradiated with ultraviolet B radiation, or not irradiated.
# The treatment is carried out 5 days a week for 8 weeks. 20 μl of test product diluted in acetone are applied to the tail with a gap from applications: the hydroquinone is applied in the morning and the adapalene 4 h later.
# −1: slight depigmentation
# −2: moderate depigmentation
# −3: marked depigmentation
# −4: complete depigmentation
# [2] = test system: UV-induced pigmentation of the tail of an SKH:HR2 mouse; conditions: UV-B 90 mJ/cm^2 3 times a week; topical in acetone 5 days a week for 8 weeks; 3% hydroquinone, 0.1% adapalene
# Procedure: The tail of the SKH:HR2 mouse is naturally pigmented and this pigmentation increases under the effect of repeated UV-B irradiation. The depigmenting activity is measured on the natural pigmentation after application of the test product to the tail of non-irradiated animals. The anti-pigmenting activity is measured by the inhibition of the induction of the UV-induced pigmentation: the test product is applied to the tail of UV-B-irradiated animals.
# The treatment is carried out 5 days a week for 8 weeks. […] On the days of irradiation, the treatment is applied after irradiation.
# The animals are irradiated 3 times a week for 8 weeks (Monday, Wednesday, Friday) at the dose of 90 mJ/cm^2 of UV-B.
# The pigmentation is evaluated once a week before irradiation, by means of a score on a scale of 0 to 4. The scores are divided as follows: Depigmentation scale: scores −1 to −4.
# Pigmentation scale: scores 1 to 4
# tail of a mouse = assay: Inhibition of the induction of pigmentation by UV-B radiation in irradiated and treated mice; type: in vivo; conditions: lower dose (0.01%)
# Description: Retinoic acid (tretinoin) is known to itself have a skin depigmenting activity (Guevara I. A. and Pandya A. G., Int. J. Dermatol., 40, 210-215 (2001)). […] Tretinoin is therefore a depigmenting agent in and of itself.
smiles,measurement,setting,value
"COc1ccc(-c2ccc3cc(C(=O)O)ccc3c2)cc1C12CC3CC(CC(C3)C1)C2 [adapalene, 6-[3-(1-adamantyl)-4-methoxyphenyl]-2-naphthanoic acid]",depigmenting activity (natural pigmentation score),[1],no depigmenting activity
same,depigmenting activity (natural pigmentation score),[1]; listed as Adapalene,does not modify the natural pigmentation
Oc1ccc(O)cc1 [hydroquinone],depigmenting activity (natural pigmentation score),[1],induces a depigmentation
same,anti-pigmenting activity (inhibition of pigmentation induced by UV-B irradiation),[2],"shows an anti-pigmenting effect at the 6th and at the 7th week (D50), which becomes less marked at the end of the study"
"CC1=C(/C=C/C(C)=C/C=C/C(C)=C/C(=O)O)C(C)(C)CCC1 [tretinoin, Retinoic acid]",inhibition of the induction of pigmentation by UV-B radiation,tail of a mouse,no effect
